Test results as given in patent publication EP1743628A1, “Cosmetic composition containing red algae extract comprising a combination of floridoside and isethionic acid” (Simer, priority 2005, dated 2007).

What was measured:
[1] = system: fibres musculaires en coculture avec des explants de moelle épinière; assay type: cell-based, cellules musculaires humaines; embryons de rat Wistar
[2] = system: transglutaminase kératinocytaire (TGk); test: Keratinocyte transglutaminase (TGk) activity in NHEK cultures (differentiation)
[3] = system: stratum corneum (SC) délipidisé; test: Water retention (water-holding capacity, WHC) of delipidised stratum corneum after immersion in aqueous test solutions; design: species or system porc; conditions: 8 h immersion, après 6 heures à 25°C et 40% RH
Method: On étudie l'hydratation du stratum corneum (SC) délipidisé et traité par différentes solutions aqueuses.
Le but de cette étude est de montrer si l'application cutanée d'une solution aqueuse d'extrait de mastocarpus (10% de matière sèche), de floridoside pur à 3,8%, d'acide iséthionique pur à 1,9%, d'un mélange de floridoside pur à 3,8% et d'acide iséthionique pur à 1,9%, modifie significativement l'état d'hydratation du SC délipidisé puis conservé dans une enceinte à 25°C et à 40 % d'humidité relative (RH).
Dans cette étude, des échantillons de SC, isolés de l'épiderme de morceaux d'oreilles de porc par un traitement à la trypsine (1% dans un tampon phosphate; pH=7,4) puis délipidisés par un solvant (acétone par exemple), ont été immergés pendant 8 heures dans une solution aqueuse d'extrait de mastocarpus 10%, de floridoside pur à 3,8%, d'acide iséthionique pur à 1,9%, d'un mélange de floridoside pur à 3,8% et d'acide iséthionique pur à 1,9%, (3 échantillons de SC par produits). Trois échantillons de SC délipidisé ont été traités par de l'eau ultra pure (contrôle, 18 MΩ), pendant 8 heures. Après traitement, ces échantillons ont été pesés puis placés dans une étuve maintenue à 25°C et à 40% RH. La masse des échantillons de SC traités par chacune des solutions a été déterminée après 1h; 2h; 3h; 4h; 5h et 6h de conservation à 25°C et à 40% RH. […]

[4] = acide rétinoïque, concentration not printed in this table (10^-7M per Tableau 4)

Structure (SMILES): CCCC(C)(COC(N)=O)COC(=O)NC(C)C (centres unmarked) [carisoprodol]
- fréquence de contraction des 3 fibres musculaires sélectionnées ([1]; 10^-3 M (0,03%), après 1 minute et 2 heures d'incubation): a bloqué
- activité contractile après recharge en glucose ([1]; 10^-3 M, 48 heures d'incubation, apport de glucose): n'a pas permis aux fibres musculaires de reprendre une activité contractile
- pourcentage moyen de contraction des trois fibres (récupération) ([1]; carisoprodol 10^-3 M, après changement de milieu et 2 heures sans produit, relative to initial frequency): 111%

Structure (SMILES): [Ca+2].[Cl-].[Cl-] [Chlorure de calcium]
- % (activité TGk/µg de protéines, par rapport au témoin) ([2]; 1,5 mM): 317%
- % témoin (activité TGk) ([2]; 1,5 mM): 394%
- activité/µg (activité TGk par rapport à la quantité de protéines) ([2]; 1,5 mM): 626
- Activité TGk (cpm) ([2]; 1,5mM, sans calcium dans le milieu): 3408 cpm
- activité transglutaminase plus forte en milieu calcium qu'en milieu sans calcium ([2]; chlorure de calcium 1,5 mM): ~4 fois

Structure (SMILES): O=S(=O)(O)CCO [acide iséthionique]
- état de déshydratation des échantillons de SC ([3]; acide iséthionique 1,9%, vs contrôle): moins déshydratés que les échantillons contrôles

Structure (SMILES): CC1=C(/C=C/C(C)=C/C=C/C(C)=C/C(=O)O)C(C)(C)CCC1 [Acide rétinoïque]
- % témoin (activité TGk) ([2]; 10^-7M): 52%
- Activité TGk (cpm) ([2]; 10^-7M): 447 cpm
- réduction de l'activité TGk ([2]; 10^-7M): 46%
- % (activité TGk/µg de protéines, par rapport au témoin) [2, 4]: 67%
- activité/µg (activité TGk par rapport à la quantité de protéines) [2, 4]: 131

Structure (SMILES): OCC(CO)O[C@H]1O[C@H](CO)[C@H](O)[C@H](O)[C@H]1O [floridoside, 2-O-glycérol-α-D-galactopyranoside]
- état de déshydratation des échantillons de SC ([3]; floridoside 3,8%, vs eau): n'était pas significativement différent

Structure (SMILES): CC1=C(/C=C/C(C)=C/C=C/C(C)=C/CO)C(C)(C)CCC1 [Rétinol]
- % (activité TGk/µg de protéines, par rapport au témoin) ([2]; 10^-6 M): 72%
- % témoin (activité TGk) ([2]; 10^-6 M): 54%
- Activité TGk (cpm) ([2]; 10^-6 M): 465 cpm
- activité/µg (activité TGk par rapport à la quantité de protéines) ([2]; 10^-6 M): 142
- réduction de l'activité TGk ([2]; 10^-6 M): 48%
